Experimental data as given in ChEMBL document CHEMBL1155214, “Structure-affinity relationships of glutamine mimics incorporated into phosphopeptides targeted to the SH2 domain of signal transducer and activator of transcription 3” (J Med Chem, 2009).

molecular target: T1, Signal transducer and activator of transcription 3 (Homo sapiens, UniProt P40763); assay: Ratio of compound IC50 to 4-(3-((S)-1-((S)-2-((S)-5-amino-1-(benzylamino)-1,5-dioxopentan-2-ylcarbamoyl)pyrrolidin-1-yl)-4-methyl-1-oxopentan-2-ylamino)-3-oxoprop-1-enyl)phenyl dihydrogen phosphate IC50 for Stat3 SH2 domain
T1 sequence (P40763 whole entry, the tested form may be a part): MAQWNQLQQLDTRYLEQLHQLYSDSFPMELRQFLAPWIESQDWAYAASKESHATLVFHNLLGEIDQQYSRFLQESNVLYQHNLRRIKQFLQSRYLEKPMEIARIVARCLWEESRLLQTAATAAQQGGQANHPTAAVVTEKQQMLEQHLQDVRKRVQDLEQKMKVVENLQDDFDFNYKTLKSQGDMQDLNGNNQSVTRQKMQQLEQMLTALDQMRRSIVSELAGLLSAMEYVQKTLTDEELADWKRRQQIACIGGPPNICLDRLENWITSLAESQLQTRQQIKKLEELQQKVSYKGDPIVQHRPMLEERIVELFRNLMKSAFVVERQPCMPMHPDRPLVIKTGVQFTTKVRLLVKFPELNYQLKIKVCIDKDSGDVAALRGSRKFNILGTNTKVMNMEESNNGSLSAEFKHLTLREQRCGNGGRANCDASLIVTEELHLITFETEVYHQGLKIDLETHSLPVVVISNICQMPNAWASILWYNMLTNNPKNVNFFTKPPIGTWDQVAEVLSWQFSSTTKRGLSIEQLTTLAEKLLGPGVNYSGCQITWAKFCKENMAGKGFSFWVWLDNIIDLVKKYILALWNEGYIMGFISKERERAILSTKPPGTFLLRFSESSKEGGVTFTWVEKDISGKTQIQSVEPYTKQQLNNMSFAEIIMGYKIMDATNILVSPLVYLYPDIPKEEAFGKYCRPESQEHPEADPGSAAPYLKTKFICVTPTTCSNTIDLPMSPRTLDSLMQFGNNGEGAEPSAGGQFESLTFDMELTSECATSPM

| SMILES | Ratio IC50 |
| --- | --- |
| CC(C)C[C@H](NC(=O)/C=C/c1ccc(OP(=O)(O)O)cc1)C(=O)N1CCC[C@H]1C(=O)N[C@@H](COC(N)=O)C(=O)NCc1ccccc1 | 3 |
| CC(C)C[C@H](NC(=O)/C=C/c1ccc(OP(=O)(O)O)cc1)C(=O)N1CCC[C@H]1C(=O)N[C@H](C(=O)NCc1ccccc1)[C@@H](C)OC(N)=O | 6 |

molecular target: T1, Signal transducer and activator of transcription 3; assay: Inhibition of Stat3 SH2 domain by fluorescence polarization assay

| SMILES | IC50 |
| --- | --- |
| CC(C)C[C@H](NC(=O)/C=C/c1ccc(OP(=O)(O)O)cc1)C(=O)N1CCC[C@H]1C(=O)N[C@@H](CCC(N)=O)CN1CCOCC1 | 1530 nM |
| CC(C)C[C@H](NC(=O)/C=C/c1ccc(OP(=O)(O)O)cc1)C(=O)N1CCC[C@H]1C(=O)N[C@H](C)CNC(N)=O | 1350 nM |
| CC(C)C[C@H](NC(=O)/C=C/c1ccc(OP(=O)(O)O)cc1)C(=O)N1CCC[C@H]1C(=O)N[C@@H](CCC(N)=O)COC(N)=O | 615 nM |
| CC(C)C[C@H](NC(=O)/C=C/c1ccc(OP(=O)(O)O)cc1)C(=O)N1CCC[C@H]1C(=O)N[C@@H](CCC(N)=O)Cc1ccc(O)cc1 | 848 nM |
| CC(C)C[C@H](NC(=O)/C=C/c1ccc(OP(=O)(O)O)cc1)C(=O)N1CCC[C@H]1C(=O)N[C@@H](CCC(N)=O)CN1CCN(C)CC1 | 1310 nM |
| CC(C)C[C@H](NC(=O)/C=C/c1ccc(OP(=O)(O)O)cc1)C(=O)N1C[C@H]2C[C@H]2[C@H]1C(=O)N[C@@H](CCC(N)=O)[C@@H](C)O | 437 nM |
| CCCC[C@H](CCC(N)=O)NC(=O)[C@@H]1CCCN1C(=O)[C@H](CC(C)C)NC(=O)/C=C/c1ccc(OP(=O)(O)O)cc1 | 1350 nM |
| CC(C)C[C@H](NC(=O)/C=C/c1ccc(OP(=O)(O)O)cc1)C(=O)N1CCC[C@H]1C(=O)N[C@H](COCc1ccccc1)COC(N)=O | 454 nM |
| CC(C)C[C@H](CCC(N)=O)NC(=O)[C@@H]1CCCN1C(=O)[C@H](CC(C)C)NC(=O)/C=C/c1ccc(OP(=O)(O)O)cc1 | 4900 nM |
| CC(C)C[C@H](NC(=O)/C=C/c1ccc(OP(=O)(O)O)cc1)C(=O)N1C[C@H]2C[C@H]2[C@H]1C(=O)N[C@@H](CCC(N)=O)C(C)C | 511 nM |
| CC(C)C[C@H](NC(=O)/C=C/c1ccc(OP(=O)(O)O)cc1)C(=O)N1CCC[C@H]1C(=O)NCCOC(N)=O | 360 nM |
| CC(C)C[C@H](NC(=O)/C=C/c1ccc(OP(=O)(O)O)cc1)C(=O)N1C[C@H]2C[C@H]2[C@H]1C(=O)NCCCC(N)=O | 303 nM |
| CC(=O)NC[C@H](CCC(N)=O)NC(=O)[C@@H]1CCCN1C(=O)[C@H](CC(C)C)NC(=O)/C=C/c1ccc(OP(=O)(O)O)cc1 | 589 nM |
| CC(C)C[C@H](NC(=O)/C=C/c1ccc(OP(=O)(O)O)cc1)C(=O)N1C[C@H]2C[C@H]2[C@H]1C(=O)N[C@@H](CCC(N)=O)COCc1ccccc1 | 94 nM |
| CC(C)C[C@H](NC(=O)/C=C/c1ccc(OP(=O)(O)O)cc1)C(=O)N1C[C@H]2C[C@H]2[C@H]1C(=O)N[C@@H](CCC(N)=O)C(=O)NCc1ccccc1 | 68 nM |
| CC(C)C[C@H](NC(=O)/C=C/c1ccc(OP(=O)(O)O)cc1)C(=O)N1CCC[C@H]1C(=O)N[C@H](CN)CCC(N)=O | 1240 nM |
| CC(C)C[C@H](NC(=O)/C=C/c1ccc(OP(=O)(O)O)cc1)C(=O)N1CCC[C@H]1C(=O)N[C@H](C)COC(N)=O | 797 nM |
| CC(C)C[C@H](NC(=O)/C=C/c1ccc(OP(=O)(O)O)cc1)C(=O)N1CCC[C@H]1C(=O)NCCNC(N)=O | 131 nM |
| CC(C)C[C@H](NC(=O)/C=C/c1ccc(OP(=O)(O)O)cc1)C(=O)N1CCC[C@H]1C(=O)N[C@@H](CCC(N)=O)CN1CCCCC1 | 1210 nM |
| CC(C)C[C@H](NC(=O)/C=C/c1ccc(OP(=O)(O)O)cc1)C(=O)N1C[C@H]2C[C@H]2[C@H]1C(=O)N[C@@H](CCC(N)=O)[C@@H](C)OCc1ccccc1 (mixture of isomers) | 69 nM |
| CC(C)C[C@H](NC(=O)/C=C/c1ccc(OP(=O)(O)O)cc1)C(=O)N1CCC[C@H]1C(=O)N[C@@H](CCC(N)=O)CN(Cc1ccccc1)Cc1ccccc1 | 1080 nM |
| CC(C)C[C@H](CCC(N)=O)NC(=O)[C@@H]1[C@@H]2C[C@@H]2CN1C(=O)[C@H](CC(C)C)NC(=O)/C=C/c1ccc(OP(=O)(O)O)cc1 | 1630 nM |
| CC(C)C[C@H](NC(=O)/C=C/c1ccc(OP(=O)(O)O)cc1)C(=O)N1C[C@H]2C[C@H]2[C@H]1C(=O)NCCOCc1ccccc1 | 69 nM |
| CC(C)C[C@H](NC(=O)/C=C/c1ccc(OP(=O)(O)O)cc1)C(=O)N1CCC[C@H]1C(=O)N[C@@H](CCC(N)=O)C(C)C | 1880 nM |
| CC(C)C[C@H](NC(=O)/C=C/c1ccc(OP(=O)(O)O)cc1)C(=O)N1C[C@H]2C[C@H]2[C@H]1C(=O)N[C@H](C)CCC(N)=O | 175 nM |
